These results are taken from US20240167001A1, “THREE-DIMENSIONAL TUMOR MODEL OF GLIOBLASTOMA AND BRAIN METASTASIS, METHODS OF MANUFACTURING SAME AND USES THEREOF” (Ramot at Tel-Aviv University Ltd., priority 2021, published 2024).

Assay [1] relates to patient-derived GB cells. Description: TMZ resistance evaluation, patient-derived GB cells in 2D culture. The class given is cell-based. The following applies: Homo sapiens, 72 h, 3 patient-derived GB cells, 3 days, all three cell types, read-out: IC50 of TMZ, patient-derived cells grown in 2D culture. As for the experimental part:
The resistance of patient-derived cells to TMZ (LIXIN, China) was assessed in fibrin 3D-bio-ink and in 2D culture. Patient-derived cells were seeded in fibrin 3D-bio-ink at 1×10^7 cells/ml density to match resemble a very dens GB tissue, in different TMZ concentrations (2000 μM -0.01 μM) for 7 days. For the 2D culture TMZ resistance evaluation 20,000-40,000 cells/well were seeded in 24 well plate in fresh DMEM. We replaced the media to media with different TMZ concentrations (10 μM -0.01 μM) for 3 days. Then, the 3D-bio-ink samples were placed in 500 μl PrestoBlue in 24 well plate and incubated at 37° C. for 3 h.

Assay [2] relates to PD-GB4 cells. Description: Proliferation in fibrin 3D-bio-ink in the presence of SELPi (ImageJ, RLU). The class given is cell-based, human. The following applies: 0.5 M [sic] KF38789, fibrin 3D-bio-ink; p=0.0001. Here is the method:
(§1) PD-GB4 iRFP-labeled were casted into 96 glass bottom well plates (Cellvis, California, USA) in a core tumor at a density of 1×10^7 cells/ml and surrounded with 1×10^6 cells/ml un-labeled hAstro. Experiments were done in a medium mixture at 1:1:1 ratio of DMEM, astrocytes medium and microglia medium. For invasion estimation of dormant versus fast-growing cell types, mCherry-labeled U-87MG and T98-G human GB cells (2×10^6 cells/ml) were plated in a glass bottom 96-well plates in the core of fibrin 3D-bio-ink. The surrounding fibrin 3D-bio-ink was an empty, clear fibrin 3D-bio-ink. Experiments were done in a medium mixture at 1:1:1:1:1 ratio of DMEM, astrocytes medium, microglia medium, pericytes medium and Endo-Gro medium. Cell invasion was monitored for 2-5 weeks using EVOS FL Auto cell imaging system and quantified by ImageJ software, presented here as relative light units (RLU). Cells invasion was normalized by comparing the size of the cell core at day 1 (polygon drawing shape) up to day 14. 2 weeks. Each group contained 6-12 samples and the experiments were repeated in three independent times. For the evaluation of proliferation in the presence of P-selectin inhibitor (SELPi), mCherry-labeled U-87MG-F and T98G-F cells generating fast-growing tumors or iRFP-labeled PD-GB4 cells (4×10^6 cells/ml) were seeded in a glass bottom 96-well plate in the core of fibrin 3D-bio-ink. The surrounding fibrin 3D-bio-ink was an empty, clear fibrin 3D-bio-ink. Cells were then treated with […] KF38789 which is a selective inhibitor of P-selectin (SELPi) which were chosen to serve as a small molecule drug. […] P-selectin (SELP) functions as a cell adhesion molecule on the surfaces of cells which binds carbohydrates (18). It is also involved in tumor cell binding and promote their invasion by supporting a permissive metastatic microenvironment and SELP is highly expressed in GB (28). […] Proliferation was quantified during time with ImageJ software by RLU. […]

Assay [3] deals with T98G-F cells. Described as above. The following applies: 0.5 M [sic] KF38789, fibrin 3D-bio-ink; p=0.00003. The class given is cell-based, human. As for the experimental part: as §1
Assay [4] deals with U-87MG-F cells. The description is as above. The class given is cell-based, human. The following applies: 0.5 M [sic] KF38789, fibrin 3D-bio-ink; p=4×10^−6. As for the experimental part:
as §1

For assay [5], the target named is T1, P-selectin (SELP) (Homo sapiens, UniProt P16109).
T1 sequence (P16109 42-830): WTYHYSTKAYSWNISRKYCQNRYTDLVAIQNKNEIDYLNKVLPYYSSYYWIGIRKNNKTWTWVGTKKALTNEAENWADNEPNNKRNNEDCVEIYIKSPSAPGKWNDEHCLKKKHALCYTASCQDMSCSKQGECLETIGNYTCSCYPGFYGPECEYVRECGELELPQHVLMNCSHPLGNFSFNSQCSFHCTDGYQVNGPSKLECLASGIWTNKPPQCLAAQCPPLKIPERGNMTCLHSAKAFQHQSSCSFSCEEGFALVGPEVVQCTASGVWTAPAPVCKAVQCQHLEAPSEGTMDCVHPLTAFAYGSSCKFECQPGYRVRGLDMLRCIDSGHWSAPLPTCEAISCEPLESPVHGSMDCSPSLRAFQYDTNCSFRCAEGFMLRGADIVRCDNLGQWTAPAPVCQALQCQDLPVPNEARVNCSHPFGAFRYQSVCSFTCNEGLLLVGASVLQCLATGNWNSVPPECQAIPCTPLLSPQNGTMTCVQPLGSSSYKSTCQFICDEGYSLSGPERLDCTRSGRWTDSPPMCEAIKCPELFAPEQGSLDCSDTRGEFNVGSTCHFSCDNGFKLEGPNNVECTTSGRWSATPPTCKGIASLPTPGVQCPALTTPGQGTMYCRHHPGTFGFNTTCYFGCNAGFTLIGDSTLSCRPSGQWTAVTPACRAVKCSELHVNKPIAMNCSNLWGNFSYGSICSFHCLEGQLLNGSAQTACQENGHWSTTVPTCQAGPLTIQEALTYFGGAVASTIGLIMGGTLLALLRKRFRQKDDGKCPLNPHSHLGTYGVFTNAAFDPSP
The following applies: lymphocytes; read-out: IC50 for inhibition of SELP binding in lymphocytes; cited from earlier work.

Assay [6] deals with PD-GB4 cells. Description: 2D proliferation assay with SELPi (IncuCyte). Format: cell-based, human. The following applies: 0.5 μM SELPi. Here is the method: (§2) For growth curve evaluation, U-87MG and T98G human GB cells dormant and fast-growing tumor cells (29) (25,000 cells/well) were seeded onto 24-well plates in complete DMEM and incubated for 72 h (37° C.; 5% CO2). For the comparison of […] cell types growth curves in 2D culture, 10,000 cells/well were cultured in DMEM following a daily incubation with PrestoBlue® reagent for 4 h. For proliferation evaluation in the presence of SELPi, U-87MG and T98G human GB cells generating dormant and fast-growing tumors, or PD-GB4 cells (25,000 cells/well) were plated onto 24-well plate in complete DMEM and incubated for 24 h (37° C.; 5% CO2) to allow cell attachment. Cells were then treated with either 0.5 μM SELPi or with DMSO vehicle at corresponding % v/v of 0.2% v/v, prepared in medium mixture at 1:1:1:1:1 ratio of DMEM, astrocytes medium, microglia medium, pericytes medium and Endo-Gro medium, for 30 min. All wells were washed twice with PBS and incubated further with fresh medium mixture. Cell proliferation was monitored by IncuCyte® Zoom Live cell analysis system (Essen Bioscience), while the first images were taken right before the treatment. Each group was assayed in triplicates and the experiment was repeated in three independent times. Proliferation of cells was normalized to time 0 and presented as percent (%) of cell confluence.

Assay [7] has as its system T98G-F cells. Description: 2D proliferation assay with SELPi (IncuCyte). The following applies: 0.5 μM SELPi. The class given is cell-based, human. As for the experimental part:
as §2

Assay [8] has as its system U-87MG-F cells. Description: 2D proliferation assay with SELPi (IncuCyte). Format: cell-based, human. The note with it: 0.5 μM SELPi. As for the experimental part:
as §2

In general, IC50 refers to the concentration at which inhibition is half-maximal. `Cn1nnc2c(C(N)=O)ncn2c1=O` [TMZ, Temozolomide]: the IC50 in assay [1] was ~4 nM.
Turning to `COc1ccc(C2CC(c3c(O)cc(C)oc3=O)=NCCS2)c(OC)c1` (centres unmarked) [SELPi, KF38789], the “Inhibition of PD-GB4 cell proliferation in fibrin 3D-bio-ink” value in assay [2] is recorded as “significant inhibition”. In assay [3], the “Inhibition of T98G fast-growing cells in fibrin 3D-bio-ink” value is “significant inhibition”. Further, the “Inhibition of U-87MG fast-growing cells in fibrin 3D-bio-ink” value in assay [4] is given as “significant inhibition”. Besides, in assay [5], the IC50 was 2000 nM. In addition, the “Effect on proliferation of PD-GB4 in 2D culture” value in assay [6] is recorded as “did not affect”. Moreover, the “Effect on T98G-F cells in 2D culture” value in assay [7] was “did not affect”. For the same compound, the “Effect on U-87MG-F cells in 2D culture” value in assay [8] is recorded as “did not affect”.
